One test has as its target T1, CDK7 (Homo sapiens, UniProt P50613).
T1 construct: purchased Life Technologies (Adapta kinase assay service)
Kind of test: Adapta kinase assay (Life Technologies) against CDK7, co-factors cyclin H and MNAT1. The class given is biochemical. As to conditions: read-out: CDK7 Inhibition. As for the experimental part: Compounds of the invention were assayed for activity against CDK7 at Life Technologies™ (Grand Island, N.Y.) using their commercially available Adapta® kinase assay services. […] Details of the assay, including the substrate used for CDK7 kinase, are available on the Life Technologies web site (http://www.lifetechnologies.com/us/en/homellife-science/drug-discovery/target-and-lead-identification-and-validation/kinasebiology/kinase-activity-assays.html).
The co-factors used for the assay were cyclin H and MNAT1.

In a further test the test system is Jurkat. Kind of test: Inhibition of cell proliferation, CellTiter-Glo, 72 hour. The class given is cell-based. The following applies: Homo sapiens, Jurkat, 72 h, Blood cancer cell line; 72 hour; read-out: Inhibition of Proliferation of Jurkat Cells. On the procedure: The following cancer cell lines were tested with the media conditions indicated: […]
(In general: Cellular ATP, detected with luciferase, serves as a proxy for viable cell number.)

The structures appear in SMILES notation. Structures can show the parent of a compound that is named as a salt.

T1 sequence (P50613 whole entry): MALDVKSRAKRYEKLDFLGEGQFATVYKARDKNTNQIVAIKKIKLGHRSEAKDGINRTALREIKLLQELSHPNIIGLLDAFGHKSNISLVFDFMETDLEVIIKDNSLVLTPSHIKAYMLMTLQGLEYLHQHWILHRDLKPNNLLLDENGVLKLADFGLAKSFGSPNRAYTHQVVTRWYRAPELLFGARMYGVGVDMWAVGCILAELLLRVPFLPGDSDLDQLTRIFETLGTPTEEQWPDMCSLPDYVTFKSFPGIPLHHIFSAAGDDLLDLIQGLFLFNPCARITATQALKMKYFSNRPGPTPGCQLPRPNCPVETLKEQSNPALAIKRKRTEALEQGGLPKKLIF
T1 sequence (P51946 whole entry partner): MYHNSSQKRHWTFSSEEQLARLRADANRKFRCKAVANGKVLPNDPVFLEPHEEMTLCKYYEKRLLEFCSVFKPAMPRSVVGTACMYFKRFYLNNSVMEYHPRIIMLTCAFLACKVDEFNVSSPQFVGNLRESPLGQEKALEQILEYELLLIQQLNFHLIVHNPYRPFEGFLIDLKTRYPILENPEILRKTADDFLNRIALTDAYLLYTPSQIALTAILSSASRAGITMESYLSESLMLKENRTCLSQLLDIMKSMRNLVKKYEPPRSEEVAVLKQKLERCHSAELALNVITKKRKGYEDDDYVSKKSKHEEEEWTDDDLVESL
T1 sequence (P51948 whole entry partner): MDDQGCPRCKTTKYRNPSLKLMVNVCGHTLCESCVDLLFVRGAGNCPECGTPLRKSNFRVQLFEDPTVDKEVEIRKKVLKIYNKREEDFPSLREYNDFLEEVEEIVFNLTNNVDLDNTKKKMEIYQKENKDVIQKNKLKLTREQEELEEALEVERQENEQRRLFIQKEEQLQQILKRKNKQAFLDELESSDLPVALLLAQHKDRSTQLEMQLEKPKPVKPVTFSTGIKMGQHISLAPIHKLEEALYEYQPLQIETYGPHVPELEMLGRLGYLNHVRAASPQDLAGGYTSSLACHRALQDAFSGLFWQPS

In the case of `CN(C)C/C=C/C(=O)Nc1ccc(C(=O)N2CCC(Nc3ncc(Cl)c(-c4cc[nH]n4)n3)CC2)cc1` [Compound 117, (E)-N-(4-(4-((5-chloro-4-(1H-pyrazol-3-yl)pyrimidin-2-yl)amino)piperidine-1-carbonyl)phenyl)-4-(dimethylamino)but-2-enamide], the IC50 was greater than 1000 nM on CDK7 and greater than 5000 nM in the test on Jurkat.

Consider `CN(C)C/C=C/C(=O)Nc1ccc(CN2CC[C@@H](Nc3ncc(Cl)c(-c4c[nH]c5ccccc45)n3)C2)cc1` [Compound 144, (R,E)-N-(4-((3-((5-chloro-4-(1H-indol-3-yl)pyrimidin-2-yl)amino)pyrrolidin-1-yl)methyl)phenyl)-4-(dimethylamino)but-2-enamide (E)-4-(dimethylamino)but-2-enoate], for which the values for the IC50 at CDK7 and in the test with Jurkat were less than 100 nM and less than 500 nM, respectively.

As to `N#Cc1cnc(N[C@@H]2CCN(C(=O)c3ccc(NC(=O)/C=C/CN4CCOCC4)cc3)C2)nc1-c1c[nH]c2ccccc12` [Compound 107, (E)-N-(4-((R)-3-(5-cyano-4-(1H-indol-3-yl)pyrimidin-2-ylamino)pyrrolidine-1-carbonyl)phenyl)-4-morpholinobut-2-enamide], the IC50 was less than 100 nM at CDK7 and less than 500 nM with Jurkat.

As to `CN(C)C/C=C/C(=O)NCC(=O)Nc1cccc(Nc2ncc(Cl)c(-c3c[nH]c4ccccc34)n2)c1` [Compound 137, (E)-N-(2-(3-(5-chloro-4-(1H-indol-3-yl)pyrimidin-2-ylamino)phenylamino)-2-oxoethyl)-4-(dimethylamino)but-2-enamide], the IC50 on CDK7 is less than 100 nM; in the test with Jurkat, 500 to 5000 nM.

For `CN(C)C/C=C/C(=O)Nc1ccc(C(=O)N2CCC(Nc3ncc(Cl)c(-c4c[nH]c5ccccc45)n3)CC2)c(F)c1` [Compound 115, (E)-N-(4-(4-(5-chloro-4-(1H-indol-3-yl)pyrimidin-2-ylamino)piperidine-1-carbonyl)-3-fluorophenyl)-4-(dimethylamino)but-2-enamide], the IC50 is less than 100 nM at CDK7 and less than 500 nM with Jurkat.

For `CN(C)C/C=C/C(=O)Nc1ccc(C(=O)N[C@@H]2CC[C@H](Nc3ncc(Cl)c(-c4c[nH]c5ccccc45)n3)C2)cc1` [Compound 129, N-((1R,3S)-3-((5-chloro-4-(1H-indol-3-yl)pyrimidin-2-yl)amino)cyclopentyl)-4-((E)-4-(dimethylamino)but-2-enamido)benzamide], the IC50 on CDK7 was less than 100 nM; in the test with Jurkat, less than 500 nM.

As to `C=CC(=O)Nc1ccc(C(=O)NC2CC3(C2)CC(Nc2ncc(Cl)c(-c4c[nH]c5ccccc45)n2)C3)cc1` (stereo not shown) [Compound 138, 4-acrylamido-N-(6-((5-chloro-4-(1H-indol-3-yl)pyrimidin-2-yl)amino)spiro[3.3]heptan-2-yl)benzamide], the figures for the IC50 at CDK7 and with Jurkat were 100 to 1000 nM and 500 to 5000 nM, respectively.

As for `Cc1[nH]c2ccccc2c1-c1nc(N[C@@H]2CC[C@H](NC(=O)c3ccc(NC(=O)/C=C/CN(C)C)cc3)C2)ncc1Cl` (racemic) [Compound 126, N-((1R,3S)-3-((5-chloro-4-(2-methyl-1H-indol-3-yl)pyrimidin-2-yl)amino)cyclopentyl)-4-((E)-4-(dimethylamino)but-2-enamido)benzamide and N-((1S,3R)-3-((5-chloro-4-(2-methyl-1H-indol-3-yl)pyrimidin-2-yl)amino)cyclopentyl)-4-((E)-4-(dimethylamino)but-2-enamido)benzamide], the IC50 on CDK7 was less than 100 nM; in the test with Jurkat, less than 500 nM.

`CNC/C=C/C(=O)Nc1ccc(CN2CCC(Nc3ncc(Cl)c(-c4c[nH]c5ccccc45)n3)CC2)cc1` [Compound 142, (E)-N-[4-[[4-[[5-chloro-4-(1H-indol-3-yl)pyrimidin-2-yl]amino]-1-piperidyl]methyl]phenyl]-4-(methylamino)but-2-enamide]: the IC50 was less than 100 nM on CDK7 and less than 500 nM with Jurkat.

As for `NCCC(=O)Nc1cccc(Nc2ncc(Cl)c(-c3c[nH]c4ccccc34)n2)c1` [Compound 306, 3-amino-N-(3-(5-chloro-4-(1H-indol-3-yl)pyrimidin-2-ylamino)phenyl) propanamide.TFA], the figures for the IC50 at CDK7 and in the test with Jurkat were less than 100 nM and 500 to 5000 nM, respectively.

In the case of `CN(C)C/C=C/C(=O)NCCC(=O)Nc1cccc(Nc2ncc(Cl)c(-c3c[nH]c4ccccc34)n2)c1` [Compound 131, (E)-N-(3-(3-(5-chloro-4-(1H-indol-3-yl)pyrimidin-2-ylamino)phenylamino)-3-oxopropyl)-4-(dimethylamino)but-2-enamide], the IC50 lay in the range of 100 to 1000 nM at CDK7 and 500 to 5000 nM in the test on Jurkat.

As for `O=C(/C=C/CNC(=O)C(F)(F)F)Nc1ccc(CN2CCC(Nc3ncc(Cl)c(-c4c[nH]c5ccccc45)n3)CC2)cc1` [Compound 156, (E)-N-(4-((4-((5-chloro-4-(1H-indol-3-yl)pyrimidin-2-yl)amino)piperidin-1-yl)methyl)phenyl)-4-(2,2,2-trifluoroacetamido)but-2-enamide], the IC50 at CDK7 is 100 to 1000 nM; in the test on Jurkat, 500 to 5000 nM.

As for `Nc1ccc(C(=O)N2CC[C@H](Nc3ncc(Cl)c(-c4c[nH]c5ccccc45)n3)C2)cc1` [Compound 24, (4-aminophenyl)((S)-3-(5-chloro-4-(1H-indol-3-yl)pyrimidin-2-ylamino)pyrrolidin-1-yl)methanone], the IC50 at CDK7 is 100 to 1000 nM; with Jurkat, greater than 5000 nM.

`CN(C)C/C=C/C(=O)Nc1cccc(CN2CCC(Nc3ncc(Cl)c(-c4c[nH]c5ccccc45)n3)CC2)c1` [Compound 141, (E)-N-[3-[[4-[[5-chloro-4-(1H-indol-3-yl)pyrimidin-2-yl]amino]-1-piperidyl]methyl]phenyl]-4-(dimethylamino)but-2-enamide]: the results for the IC50 on CDK7 and in the test on Jurkat were less than 100 nM and less than 500 nM, respectively.

Consider `CN(C)C/C=C/C(=O)Nc1ccc(C(=O)N[C@@H]2CC[C@H](Nc3ncc(Cl)c(-c4cccnc4)n3)C2)cc1` (racemic) [Compound 123, N-((1R,3S)-3-((5-chloro-4-(pyridin-3-yl)pyrimidin-2-yl)amino)cyclopentyl)-4-((E)-4-(dimethylamino)but-2-enamido)benzamide and N-((1S,3R)-3-((5-chloro-4-(pyridin-3-yl)pyrimidin-2-yl)amino)cyclopentyl)-4-((E)-4-(dimethylamino)but-2-enamido)benzamide], for which the IC50 is 100 to 1000 nM on CDK7 and less than 500 nM with Jurkat.

For `C=CC(=O)Nc1ccc(NC(=O)C2CNCC(Nc3ncc(Cl)c(-c4c[nH]c5ccccc45)n3)C2)cc1` (racemic) [Compound 153, (+/−cis)-N-(4-acrylamidophenyl)-5-((5-chloro-4-(1H-indol-3-yl)pyrimidin-2-yl)amino)piperidine-3-carboxamide], the IC50 on CDK7 is less than 100 nM; in the test with Jurkat, less than 500 nM.

Consider `CN(C)C/C=C/C(=O)Nc1ccc(C(=O)N[C@@H]2CC[C@H](Nc3ncc(Cl)c(-c4c[nH]c5ccccc45)n3)C2)cc1` (racemic) [Compound 120, N-((1R,3S)-3-((5-chloro-4-(1H-indol-3-yl)pyrimidin-2-yl)amino)cyclopentyl)-4-((E)-4-(dimethylamino)but-2-enamido)benzamide and N-((1S,3R)-3-((5-chloro-4-(1H-indol-3-yl)pyrimidin-2-yl)amino)cyclopentyl)-4-((E)-4-(dimethylamino)but-2-enamido)benzamide], for which the figures for the IC50 at CDK7 and in the test on Jurkat were 100 to 1000 nM and less than 500 nM, respectively.

The record behind these values is patent publication US20190292167A1, “HETEROAROMATIC COMPOUNDS USEFUL FOR THE TREATMENT OF PROLIFERATIVE DISEASES” (Syros Pharmaceuticals, Inc., priority 2013, published 2019).
